From article PMC5011342, “A high throughput drug screening assay to identify compounds that promote oligodendrocyte differentiation using acutely dissociated and purified oligodendrocyte precursor cells” (BMC Research Notes, 2016)
Like-named read-outs stand apart in the source and are kept apart here.

Tests used:
expanded OPCs = experiment: cells; details: for viability at 0.1 µM / viability at 1 µM / viability at 10 µM: Rattus norvegicus, 72 h; for 0.1 µM (% DMSO) / 1 µM (% DMSO) / 10 µM (% DMSO): alamarBlue viability of expanded OPCs; for 0.1 µM (% DMSO): compound at 0.1 µM; for 1 µM (% DMSO): compound at 1 µM; for 10 µM (% DMSO): compound at 10 µM
Procedure, shortened: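 Expanded OPCs seeded at 10,000 cells/well in differentiation media, then exposed to NCC library compounds at 10, 1 and 0.1 µM (quadruplicate, 0.1% DMSO) for three days. Viability read as alamarBlue fluorescence (560/590 nm) after 4 h at 37 °C; tunicamycin 5 ng/ml served as toxicity control.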

[1] = system: acutely dissociated and purified rat OPCs; experiment: Acute OL differentiation assay (MBP expression/cell, immunofluorescent image quantification); assay type: cell-based; details: for activation at 0.08 µM: 0.08 uM test compound, read-out: OL differentiation, 0.08 uM (% Quet)
Procedure, shortened: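 Oligodendrocyte precursor cells were enriched from P6-P7 Sprague–Dawley rat brains by immunopanning (RAN-2 and GalC depletion, O4 selection), plated at 5000 cells/well in serum-free, mitogen-free differentiation media on PDL/laminin 96-well view plates, centrifuged at 200×g, and pre-incubated 1–2 h before test compounds were added in quadruplicate. On DIV4, cells were fixed, stained for MBP and DAPI, imaged automatically, and MBP expression per cell was quantified.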

[2] = read-out: 0.1 µM (% DMSO), alamarBlue viability of expanded OPCs, compound at 0.1 µM, sheet All Tox data
[3] = read-out: 1 µM (% DMSO), alamarBlue viability of expanded OPCs, compound at 1 µM, sheet All Tox data
[4] = read-out: 10 µM (% DMSO), alamarBlue viability of expanded OPCs, compound at 10 µM, sheet All Tox data
[5] = read-out: 0.1 µM (% DMSO), alamarBlue viability, NCC library compound at 0.1 µM, sheet "All Tox data"
[6] = read-out: 1 µM (% DMSO), alamarBlue viability, NCC library compound at 1 µM, sheet "All Tox data"
[7] = read-out: 10 µM (% DMSO), alamarBlue viability, NCC library compound at 10 µM, sheet "All Tox data"
[8] = Rattus norvegicus, relative to quetiapine, sheet "All OLga data"
[9] = Rattus norvegicus, 0.4 uM test compound, relative to quetiapine, sheet "All OLga data", read-out: OL differentiation, 0.4 uM (% Quet)
[10] = Rattus norvegicus, test compound at 2 uM, NCC library screen, sheet "All OLga data", relative to quetiapine, read-out: 2 uM (% Quet)
[11] = Rattus norvegicus, test compound at 10 uM, NCC library screen, sheet "All OLga data", relative to quetiapine, read-out: 10 uM (% Quet)

SMILES | viability at 0.1 µM (expanded OPCs; [2]) [%] | viability at 1 µM (expanded OPCs; [3]) [%] | viability at 10 µM (expanded OPCs; [4]) [%] | viability at 0.1 µM (expanded OPCs; [5]) [%] | viability at 1 µM (expanded OPCs; [6]) [%] | viability at 10 µM (expanded OPCs; [7]) [%] | activation at 0.4 µM [1, 9] [%] | activation at 2 µM [1, 10] [%] | activation at 10 µM [1, 11] [%] | also measured
CN(C)CCOC(c1ccccc1)c1ccccc1 [Diphenhydramine] | 79.3 | 80 | 62.4 |  |  |  |  |  |  | activation at 2 µM ([1]; Rattus norvegicus, 2 uM test compound, relative to quetiapine, sheet "All OLga data", read-out: OL differentiation, 2 uM (% Quet)): 3.5%; activation at 10 µM ([1]; Rattus norvegicus, 10 uM test compound, relative to quetiapine, sheet "All OLga data", read-out: OL differentiation, 10 uM (% Quet)): 30%
CCOC(=O)C1(c2ccccc2)CCN(CCC(C#N)(c2ccccc2)c2ccccc2)CC1 [Diphenoxylate] |  |  |  | 85.6 | 27.7 | 23.2 | 12 |  |  | activation at 0.08 µM [1, 8]: -3.7%
O=c1c(-c2ccccc2)c1-c1ccccc1 [Diphenylcyclopropenone] | 73.9 | 65 | 11.7 |  |  |  | 8.6 |  |  | 
OCCN(CCO)c1nc(N2CCCCC2)c2nc(N(CCO)CCO)nc(N3CCCCC3)c2n1 [Dipyridamole] |  |  |  |  |  |  |  | 13.5 | -27.3 | 0.1 µM (% DMSO) (expanded OPCs; relative to DMSO control): 107.4 % DMSO; 1 µM (% DMSO) (expanded OPCs; relative to DMSO control): 102.2 % DMSO; 10 µM (% DMSO) (expanded OPCs; relative to DMSO control): 87.5 % DMSO
CC(C)N(CCC(C(N)=O)(c1ccccc1)c1ccccn1)C(C)C (stereo not drawn) [Disopyramide] |  |  |  |  |  |  |  |  |  | 0.1 µM (% DMSO) (expanded OPCs; relative to DMSO control): 89.6 % DMSO; 1 µM (% DMSO) (expanded OPCs; relative to DMSO control): 92.1 % DMSO; 10 µM (% DMSO) (expanded OPCs; relative to DMSO control): 88.7 % DMSO; activation at 2 µM ([1]; Rattus norvegicus, test compound at 2 uM, MBP expression relative to quetiapine, NCC library screen, sheet "All OLga data", read-out: 2 uM (% Quet)): -10.1%; activation at 10 µM ([1]; Rattus norvegicus, test compound at 10 uM, MBP expression relative to quetiapine, NCC library screen, sheet "All OLga data", read-out: 10 uM (% Quet)): -11.2%
O=C1c2c(O)cc(O)cc2OC(c2ccc(O)c(O)c2)C1O (stereo not drawn) [Distylin] |  |  |  |  |  |  |  |  |  | 0.1 µM (% DMSO) (expanded OPCs; sheet All Tox data): 109.5 % DMSO; 1 µM (% DMSO) (expanded OPCs; sheet All Tox data): 92.1 % DMSO; 10 µM (% DMSO) (expanded OPCs; sheet All Tox data): 99.3 % DMSO; OL differentiation, 2 uM (% Quet) ([1]; 2 uM test compound, relative to quetiapine, sheet "All OLga data"): 7.2 % Quet; OL differentiation, 10 uM (% Quet) ([1]; 10 uM test compound, relative to quetiapine, sheet "All OLga data"): -26.1 % Quet
CCN(CC)C(=S)SSC(=S)N(CC)CC [Disulfiram] | 22.6 | 18.1 | 13.8 |  |  |  | -180 |  |  | 
CC(=O)O[C@@]12CO[C@@H]1C[C@H](O)[C@@]1(C)C(=O)[C@H](O)C3=C(C)[C@@H](OC(=O)[C@H](O)[C@@H](NC(=O)OC(C)(C)C)c4ccccc4)C[C@@](O)([C@@H](OC(=O)c4ccccc4)[C@H]21)C3(C)C [Docetaxel] | 39.1 | 38.8 | 47.6 |  |  |  | -105 |  |  | activation at 0.08 µM [1, 8]: -94.4%
CN(CCOc1ccc(NS(C)(=O)=O)cc1)CCc1ccc(NS(C)(=O)=O)cc1 [Dofetilide, reference compound] |  |  |  | 96.1 | 98 | 122 |  | 19.4 | 31.8 | EC50 ([1]; Rattus norvegicus, average EC50 for induction of OL differentiation from independent biological replicates, eight concentrations): 14 µM; hit in OL differentiation assay, MRF-TMC ([1]; ● = confirmed hit in this paper's assay): ●
O=C(O[C@@H]1C[C@@H]2C[C@H]3C[C@H](C1)N2CC3=O)c1c[nH]c2ccccc12 [Dolasetron] |  |  |  | 81 | 81.8 | 63.4 |  | 4.6 | 18.1 | 
NCCc1ccc(O)c(O)c1 [Dopamine] |  |  |  | 87 | 74.7 | 51.7 |  | -24.9 |  | activation at 0.4 µM ([1]; Rattus norvegicus, test compound at 0.4 uM, NCC library screen, sheet "All OLga data", relative to quetiapine, read-out: 0.4 uM (% Quet)): 3.4%
CCN1CC(CCN2CCOCC2)C(c2ccccc2)(c2ccccc2)C1=O (stereo not drawn) [Doxapram] |  |  |  | 89 | 89.2 | 79.9 |  | -8.9 | 14.8 | 
